Measured values published in ChEMBL document CHEMBL5653631, “A Potent and Selective ULK1 Inhibitor Suppresses Autophagy and Sensitizes Cancer Cells to Nutrient Stress” (iScience, 2018).

Tests used:
[1] = molecular target: Cyclin-dependent kinase 2 (Homo sapiens) (UniProt P24941); experiment: Inhibition of human recombinant CDK2 at 500 nM related to control ULK1
[2] = molecular target: Angiopoietin-1 receptor (Homo sapiens) (UniProt Q02763); experiment: Inhibition of human recombinant Tie2 at 500 nM related to control ULK1
Chain of Angiopoietin-1 receptor (Homo sapiens) (Q02763 whole entry): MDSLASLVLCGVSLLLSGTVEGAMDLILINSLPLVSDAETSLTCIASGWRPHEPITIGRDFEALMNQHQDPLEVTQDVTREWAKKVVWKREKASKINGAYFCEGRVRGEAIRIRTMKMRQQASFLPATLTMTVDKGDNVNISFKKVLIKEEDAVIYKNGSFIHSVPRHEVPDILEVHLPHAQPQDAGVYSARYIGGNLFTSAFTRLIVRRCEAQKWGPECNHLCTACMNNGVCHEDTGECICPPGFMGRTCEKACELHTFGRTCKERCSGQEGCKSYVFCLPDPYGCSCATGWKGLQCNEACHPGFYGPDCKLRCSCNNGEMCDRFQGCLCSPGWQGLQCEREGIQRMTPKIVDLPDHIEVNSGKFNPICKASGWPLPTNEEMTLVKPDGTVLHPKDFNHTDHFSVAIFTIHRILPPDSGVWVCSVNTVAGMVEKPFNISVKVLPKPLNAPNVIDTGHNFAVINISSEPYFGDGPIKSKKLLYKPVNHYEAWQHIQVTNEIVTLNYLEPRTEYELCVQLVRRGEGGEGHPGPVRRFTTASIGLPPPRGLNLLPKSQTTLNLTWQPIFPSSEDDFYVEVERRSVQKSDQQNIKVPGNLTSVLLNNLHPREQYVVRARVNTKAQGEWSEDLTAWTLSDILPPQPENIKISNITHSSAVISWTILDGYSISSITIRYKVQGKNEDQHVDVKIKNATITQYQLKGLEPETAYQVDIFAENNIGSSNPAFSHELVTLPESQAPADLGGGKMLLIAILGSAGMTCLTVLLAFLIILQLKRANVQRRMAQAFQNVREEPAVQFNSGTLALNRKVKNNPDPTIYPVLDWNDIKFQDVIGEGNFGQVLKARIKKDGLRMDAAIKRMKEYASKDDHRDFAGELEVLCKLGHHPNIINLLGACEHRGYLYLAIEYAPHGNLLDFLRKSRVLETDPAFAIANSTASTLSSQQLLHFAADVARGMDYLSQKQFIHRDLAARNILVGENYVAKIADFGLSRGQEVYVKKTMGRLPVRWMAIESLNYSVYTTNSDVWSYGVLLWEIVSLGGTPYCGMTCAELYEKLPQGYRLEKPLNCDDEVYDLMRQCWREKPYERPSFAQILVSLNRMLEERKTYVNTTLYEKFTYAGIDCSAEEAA

[3] = molecular target: T1, Serine/threonine-protein kinase tousled-like 1 (Homo sapiens) (UniProt Q9UKI8); experiment: Inhibition of human recombinant TLK1 at 15 nM in presence of ATP by radiometric assay relative to control
T1 sequence (whole entry): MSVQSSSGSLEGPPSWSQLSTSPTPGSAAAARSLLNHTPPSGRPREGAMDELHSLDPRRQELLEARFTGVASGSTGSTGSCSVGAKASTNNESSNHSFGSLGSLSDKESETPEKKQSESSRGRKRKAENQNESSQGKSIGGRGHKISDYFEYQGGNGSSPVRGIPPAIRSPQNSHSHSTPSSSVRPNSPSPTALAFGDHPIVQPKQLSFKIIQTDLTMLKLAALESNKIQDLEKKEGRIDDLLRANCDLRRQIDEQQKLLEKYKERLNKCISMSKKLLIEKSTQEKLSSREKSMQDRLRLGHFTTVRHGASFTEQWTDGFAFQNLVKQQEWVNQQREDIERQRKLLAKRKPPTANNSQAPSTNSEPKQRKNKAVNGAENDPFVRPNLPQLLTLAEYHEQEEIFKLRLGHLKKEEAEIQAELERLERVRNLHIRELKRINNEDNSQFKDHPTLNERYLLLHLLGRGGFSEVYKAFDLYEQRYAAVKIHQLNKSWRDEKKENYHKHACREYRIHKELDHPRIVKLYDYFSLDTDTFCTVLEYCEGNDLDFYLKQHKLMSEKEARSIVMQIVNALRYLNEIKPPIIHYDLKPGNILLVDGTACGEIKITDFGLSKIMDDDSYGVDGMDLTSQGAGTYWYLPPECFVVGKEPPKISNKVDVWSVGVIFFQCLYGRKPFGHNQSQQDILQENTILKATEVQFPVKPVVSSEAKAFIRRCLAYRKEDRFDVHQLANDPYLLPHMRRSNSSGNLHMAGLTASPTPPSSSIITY

[4] = molecular target: Cell division cycle 7-related protein kinase (Homo sapiens) (UniProt O00311); experiment: Inhibition of human recombinant CDC7 at 15 nM related to control ULK1
Chain of Cell division cycle 7-related protein kinase (Homo sapiens) (O00311 whole entry, looked up): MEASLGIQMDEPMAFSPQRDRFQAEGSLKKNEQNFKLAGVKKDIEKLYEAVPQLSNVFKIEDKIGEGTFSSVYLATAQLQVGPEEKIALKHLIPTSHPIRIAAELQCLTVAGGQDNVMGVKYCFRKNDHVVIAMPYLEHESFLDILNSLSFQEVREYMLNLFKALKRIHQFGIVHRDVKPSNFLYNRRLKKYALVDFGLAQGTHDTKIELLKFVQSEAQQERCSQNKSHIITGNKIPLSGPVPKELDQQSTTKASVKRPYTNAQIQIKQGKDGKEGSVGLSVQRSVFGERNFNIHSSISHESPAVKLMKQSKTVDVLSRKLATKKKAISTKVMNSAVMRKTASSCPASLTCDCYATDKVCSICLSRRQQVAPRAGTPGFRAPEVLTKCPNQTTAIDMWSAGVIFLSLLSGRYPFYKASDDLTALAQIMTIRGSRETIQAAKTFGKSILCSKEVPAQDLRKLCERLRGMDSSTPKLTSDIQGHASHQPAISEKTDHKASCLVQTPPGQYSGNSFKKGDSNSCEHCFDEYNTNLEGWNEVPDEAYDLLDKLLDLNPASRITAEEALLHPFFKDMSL

[5] = molecular target: Calcium/calmodulin-dependent protein kinase type 1B (Homo sapiens) (UniProt Q6P2M8); experiment: Inhibition of human recombinant CaMK1b at 40 nM in presence of ATP by radiometric assay relative to control
Chain of Calcium/calmodulin-dependent protein kinase type 1B (Homo sapiens) (Q6P2M8 whole entry): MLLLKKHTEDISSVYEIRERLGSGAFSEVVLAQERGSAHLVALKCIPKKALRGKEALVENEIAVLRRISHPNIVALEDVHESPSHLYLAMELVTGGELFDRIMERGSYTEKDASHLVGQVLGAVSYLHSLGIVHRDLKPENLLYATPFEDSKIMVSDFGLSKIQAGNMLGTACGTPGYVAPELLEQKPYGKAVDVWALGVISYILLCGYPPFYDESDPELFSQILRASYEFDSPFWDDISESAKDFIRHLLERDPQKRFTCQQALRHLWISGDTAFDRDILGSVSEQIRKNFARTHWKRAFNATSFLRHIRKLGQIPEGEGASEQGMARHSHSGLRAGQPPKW

[6] = molecular target: T2, Serine/threonine-protein kinase STK11 (Homo sapiens) (UniProt Q15831); experiment: Inhibition of human recombinant LKB1 at 40 nM related to control ULK1
T2 sequence (whole entry): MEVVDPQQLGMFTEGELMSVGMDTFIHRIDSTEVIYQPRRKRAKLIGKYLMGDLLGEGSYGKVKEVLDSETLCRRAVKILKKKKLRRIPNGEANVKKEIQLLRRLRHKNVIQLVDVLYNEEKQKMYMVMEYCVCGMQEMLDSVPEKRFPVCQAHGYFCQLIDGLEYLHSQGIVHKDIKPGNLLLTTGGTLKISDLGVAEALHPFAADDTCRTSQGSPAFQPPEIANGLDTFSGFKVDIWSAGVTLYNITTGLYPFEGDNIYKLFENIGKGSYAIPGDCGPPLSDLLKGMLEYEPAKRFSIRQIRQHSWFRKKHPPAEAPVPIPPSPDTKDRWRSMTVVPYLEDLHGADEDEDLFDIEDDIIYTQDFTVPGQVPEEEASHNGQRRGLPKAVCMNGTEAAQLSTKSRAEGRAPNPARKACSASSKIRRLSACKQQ

[7] = molecular target: Death-associated protein kinase 3 (Homo sapiens) (UniProt O43293); experiment: Inhibition of human recombinant DAPK3 at 40 nM related to control ULK1
Chain of Death-associated protein kinase 3 (Homo sapiens) (O43293 whole entry, looked up): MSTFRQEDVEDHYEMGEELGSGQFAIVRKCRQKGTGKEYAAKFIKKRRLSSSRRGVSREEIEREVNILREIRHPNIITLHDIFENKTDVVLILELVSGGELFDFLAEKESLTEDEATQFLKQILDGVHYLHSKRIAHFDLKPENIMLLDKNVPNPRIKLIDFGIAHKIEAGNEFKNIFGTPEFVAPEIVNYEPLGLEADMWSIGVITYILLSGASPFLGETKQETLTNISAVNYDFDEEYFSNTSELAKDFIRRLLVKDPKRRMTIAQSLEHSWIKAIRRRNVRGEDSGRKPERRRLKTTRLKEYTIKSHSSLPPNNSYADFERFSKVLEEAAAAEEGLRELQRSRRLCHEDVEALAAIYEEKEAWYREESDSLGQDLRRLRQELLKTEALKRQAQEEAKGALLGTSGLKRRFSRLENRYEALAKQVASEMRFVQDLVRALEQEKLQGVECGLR

[8] = molecular target: Cyclin-dependent kinase-like 3 (Homo sapiens) (UniProt Q8IVW4); experiment: Inhibition of human recombinant CDKL3 at 40 nM related to control ULK1
Chain of Cyclin-dependent kinase-like 3 (Homo sapiens) (Q8IVW4 whole entry, looked up): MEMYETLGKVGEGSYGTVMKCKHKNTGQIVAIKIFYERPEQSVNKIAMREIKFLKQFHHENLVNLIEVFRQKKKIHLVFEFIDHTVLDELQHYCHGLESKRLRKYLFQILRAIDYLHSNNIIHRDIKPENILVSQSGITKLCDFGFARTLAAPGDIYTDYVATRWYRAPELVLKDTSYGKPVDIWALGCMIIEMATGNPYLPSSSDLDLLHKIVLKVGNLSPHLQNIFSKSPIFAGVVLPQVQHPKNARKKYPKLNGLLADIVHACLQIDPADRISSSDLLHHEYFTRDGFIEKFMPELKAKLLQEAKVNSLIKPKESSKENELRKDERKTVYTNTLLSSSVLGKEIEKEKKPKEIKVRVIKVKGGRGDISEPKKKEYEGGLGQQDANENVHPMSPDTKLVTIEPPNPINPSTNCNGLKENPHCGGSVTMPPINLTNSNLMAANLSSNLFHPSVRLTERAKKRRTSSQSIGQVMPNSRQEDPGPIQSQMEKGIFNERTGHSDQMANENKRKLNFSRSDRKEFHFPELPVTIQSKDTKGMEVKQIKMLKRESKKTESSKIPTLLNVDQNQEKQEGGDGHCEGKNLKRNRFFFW

[9] = molecular target: T3, Testis-specific serine/threonine-protein kinase 3 (Homo sapiens) (UniProt Q96PN8); experiment: Inhibition of human recombinant TSSK3 at 40 nM related to control ULK1
T3 sequence (whole entry): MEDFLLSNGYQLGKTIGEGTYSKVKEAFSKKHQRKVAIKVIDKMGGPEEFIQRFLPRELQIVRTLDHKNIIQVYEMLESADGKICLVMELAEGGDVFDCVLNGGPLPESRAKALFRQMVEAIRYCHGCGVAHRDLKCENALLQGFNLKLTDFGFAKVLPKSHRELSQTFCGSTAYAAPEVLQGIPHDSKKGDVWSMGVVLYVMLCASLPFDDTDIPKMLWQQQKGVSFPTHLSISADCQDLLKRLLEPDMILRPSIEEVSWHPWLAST

[10] = molecular target: T4, Tyrosine-protein kinase ITK/TSK (Homo sapiens) (UniProt Q08881); experiment: Inhibition of human recombinant ITK at 40 nM related to control ULK1
T4 sequence (whole entry): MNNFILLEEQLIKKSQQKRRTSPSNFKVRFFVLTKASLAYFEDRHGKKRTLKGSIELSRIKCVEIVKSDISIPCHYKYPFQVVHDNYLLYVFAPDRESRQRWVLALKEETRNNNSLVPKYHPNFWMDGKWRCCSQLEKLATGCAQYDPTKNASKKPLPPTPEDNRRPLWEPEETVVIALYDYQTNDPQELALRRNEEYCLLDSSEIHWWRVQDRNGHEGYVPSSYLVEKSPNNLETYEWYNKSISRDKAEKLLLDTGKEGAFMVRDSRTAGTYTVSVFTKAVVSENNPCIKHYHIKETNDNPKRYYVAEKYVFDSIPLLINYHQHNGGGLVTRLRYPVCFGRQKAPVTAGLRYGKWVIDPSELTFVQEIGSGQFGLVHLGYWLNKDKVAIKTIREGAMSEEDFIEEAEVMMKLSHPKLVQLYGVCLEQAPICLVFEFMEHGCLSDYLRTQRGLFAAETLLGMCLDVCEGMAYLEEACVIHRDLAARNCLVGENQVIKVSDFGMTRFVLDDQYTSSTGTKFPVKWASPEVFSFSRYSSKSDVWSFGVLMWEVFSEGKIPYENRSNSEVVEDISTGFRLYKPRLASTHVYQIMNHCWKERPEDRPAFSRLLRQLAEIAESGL

[11] = molecular target: Mitogen-activated protein kinase kinase kinase 20 (Homo sapiens) (UniProt Q9NYL2); experiment: Inhibition of human recombinant ZAK at 40 nM in presence of ATP by radiometric assay relative to control
Chain of Mitogen-activated protein kinase kinase kinase 20 (Homo sapiens) (Q9NYL2 2-800 limits assumed): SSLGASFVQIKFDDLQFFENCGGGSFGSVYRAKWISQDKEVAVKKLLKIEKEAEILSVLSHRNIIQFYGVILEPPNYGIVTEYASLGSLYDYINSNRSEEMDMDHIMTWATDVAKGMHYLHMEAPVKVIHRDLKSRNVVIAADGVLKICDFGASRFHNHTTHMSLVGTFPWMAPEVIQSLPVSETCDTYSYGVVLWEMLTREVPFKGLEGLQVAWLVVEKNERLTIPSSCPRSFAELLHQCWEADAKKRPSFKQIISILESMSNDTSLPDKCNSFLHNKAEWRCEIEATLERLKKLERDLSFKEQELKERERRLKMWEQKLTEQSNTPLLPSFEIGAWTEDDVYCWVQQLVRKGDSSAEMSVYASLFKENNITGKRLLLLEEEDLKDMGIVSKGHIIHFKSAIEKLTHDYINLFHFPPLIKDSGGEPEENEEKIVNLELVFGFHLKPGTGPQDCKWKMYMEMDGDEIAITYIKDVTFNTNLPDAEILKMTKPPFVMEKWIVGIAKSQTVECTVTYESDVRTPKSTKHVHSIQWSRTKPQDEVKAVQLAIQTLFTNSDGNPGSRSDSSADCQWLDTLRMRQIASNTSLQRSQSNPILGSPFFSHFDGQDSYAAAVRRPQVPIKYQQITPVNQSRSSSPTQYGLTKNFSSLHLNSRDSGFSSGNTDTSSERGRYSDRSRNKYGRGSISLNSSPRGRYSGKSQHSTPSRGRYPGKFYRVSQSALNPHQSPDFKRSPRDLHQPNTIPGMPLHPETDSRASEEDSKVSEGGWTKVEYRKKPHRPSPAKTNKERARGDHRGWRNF

Compound `CNC(=O)c1ccccc1Oc1nc(Nc2cc(OC)c(OC)c(OC)c2)ncc1Br` has a fold change (FC) [1] of 0.05 and a fold change (FC) [2] of 0.31.

`CC(C)[C@H](NC(=O)c1cc(-c2cnn3cc(-c4ccc(OCCN5CCCCC5)cc4)cnc23)cs1)C(F)(F)F` gave an inhibition [3] of 0% and a fold change (FC) [4] of 0.09.

Work on `O=C(N[C@@H](C1CC1)C(F)(F)F)c1cc(-c2cnn3cc(-c4ccc(F)cc4)cnc23)cs1` yielded an inhibition [5] of 0%, a fold change (FC) [6] of 0.18 and a fold change (FC) [7] of 0.11. For the same compound, the fold change (FC) [8] was 0.53, the fold change (FC) [9] was 0 and the fold change (FC) [10] was 0. The inhibition [11] was 0%.
